According to the NIST ThermoML archive (doi:10.1016/j.jct.2010.11.011):
Numbers after ± are expanded uncertainties.

How the values were obtained:
[1] = Molar enthalpy of transition or fusion; settings: DSC
[2] = for mass density: 293 K, 101.33 kPa, Flotation in CCl4 and Heptane; for Triple point temperature: DTA

Row | SMILES | Molar enthalpy of transition or fusion ([1]; Crystal 1) | mass density ([2]; Crystal 2) | Triple point temperature ([2]; Crystal 1) | Molar enthalpy of transition or fusion ([1]; Crystal) | Triple point temperature ([2]; Crystal) | mass density ([2]; Crystal)
1 | CCCCCCCCCCCCCCCCC(=O)[O-].[Li+] [lithium heptadecanoate] | 13.4 ± 2.1 kJ/mol | 1090 ± 40 kg/m3 | 498.85 ± 0.59 K | – | – | –
2 | CCCCCCCCCCCCCCCCCCC(=O)[O-].[Li+] [lithium nonadecanoate] | 15.4 ± 4.9 kJ/mol | 1080 ± 40 kg/m3 | 496.35 ± 1.2 K | – | – | –
3 | CCCCCCCCCCCCCCCC(=O)[O-].[Li+] [lithium hexadecanoate] | 15.8 ± 5 kJ/mol | 1050 ± 40 kg/m3 | 500.89 ± 2.8 K | – | – | –
4 | CCCCCCCCCC(=O)[O-].[Li+] [lithium decanoate] | 24.8 ± 6 kJ/mol | 1080 ± 40 kg/m3 | 516.6 ± 1.3 K | – | – | –
5 | CCCCCCCCCCCC(=O)[O-].[Li+] [lithium dodecanoate] | 26.2 ± 5.7 kJ/mol | 1060 ± 40 kg/m3 | 501.95 ± 1.8 K | – | – | –
6 | CCCCCCCCC(=O)[O-].[Li+] [lithium nonanoate] | 22.6 ± 1.7 kJ/mol | 1120 ± 50 kg/m3 | 524.1 ± 1.2 K | – | – | –

Continued, values first:

Row | Molar enthalpy of transition or fusion ([1]; Crystal 1) | mass density ([2]; Crystal 2) | Triple point temperature ([2]; Crystal 1) | Molar enthalpy of transition or fusion ([1]; Crystal) | Triple point temperature ([2]; Crystal) | mass density ([2]; Crystal) | SMILES
7 | 16.2 ± 1.1 kJ/mol | 1100 ± 40 kg/m3 | 501.25 ± 0.39 K | – | – | – | CCCCCCCCCCCCCCC(=O)[O-].[Li+] [lithium pentadecanoate]
8 | 25.3 ± 36 kJ/mol | 1050 ± 40 kg/m3 | 502.4 ± 1 K | – | – | – | CCCCCCCCCCCCCC(=O)[O-].[Li+] [lithium tetradecanoate]
9 | 13.9 ± 2.3 kJ/mol | 1100 ± 40 kg/m3 | 504.27 ± 0.4 K | – | – | – | CCCCCCCCCCCCC(=O)[O-].[Li+] [lithium tridecanoate]
10 | – | 1120 ± 50 kg/m3 | – | 24.5 ± 0.85 kJ/mol | 507.27 ± 3.1 K | – | CCCCCCCCCCC(=O)[O-].[Li+] [lithium undecanoate]
11 | 16.9 ± 1.3 kJ/mol | 1040 ± 40 kg/m3 | 499.85 ± 0.59 K | – | – | – | CCCCCCCCCCCCCCCCCC(=O)[O-].[Li+] [lithium octadecanoate]
12 | – | – | – | 23.4 ± 0.95 kJ/mol | 536.8 ± 0.7 K | 1080 ± 40 kg/m3 | CCCCCCCC(=O)[O-].[Li+] [lithium octanoate]
